Laboratory results published in US20170162898A1, “Quaternary Ammonium Halides With Ether Functional Groups For Use As Battery Electrolytes” (Albemarle Corporation, priority 2014, published 2017).
Several values for one entry are separate records, joined by “and”; a condition that tells them apart may be missing. Identical values can stand only once.

How the values were obtained:
[1] = Measurement of free bromine in aqueous phase; format: physicochemical; conditions: stirred 24 hrs, top aqueous phase, wt %
From the text: The forward operation of a bromine-containing battery generally involves the conversion of elemental bromine to ionic bromine. The quat/Br2 complex results from an equilibrium reaction in which the Br2 is released from the complex as the concentration of free Br2 in the aqueous electrolyte drops during battery operation. In its fully charged state, the electrolyte solution inevitably contains some degree of uncomplexed bromine. A measure of a quat's ability to complex elemental bromine is the amount of elemental bromine left in solution when the complexation reaction proceeds to equilibrium. Such bromine is referred to as “free bromine.” Measurement of free bromine in aqueous phase is set forth in Example 1.
Two slightly different methods were used to prepare the electrolyte compositions, A) one containing 0.7M quat and B) the other containing 0.8M quat. In composition A, 2.0 moles of bromine was added to an aqueous solution containing 0.5 moles of zinc bromide and 0.7 moles of the quat. The two-phase mixture was stirred for 24 hrs. and then the phases were allowed to settle. The top aqueous phase was sampled for free bromine measurement. In composition B, 1.44 moles of bromine was added to an aqueous solution containing 0.5 moles of zinc bromide, 0.4 moles of zinc chloride and 0.8 moles of the quat. The top aqueous phase obtained after stirring for 24 hrs. was used for free bromine measurement.
A 250-ml Erlenmeyer flask was charged with 50 ml of deionized water and weighed (A). A sample of the clear aqueous phase was passed through glass wool to remove any suspended organic phase and then added to the Erlenmeyer flask. The flask was weighed again (B) and the difference in weight (B-A) was noted as the weight of the sample. About 20 ml of 20% potassium iodide solution followed by about 5 ml of starch solution was added to the flask. The resulting dark mixture was titrated against 0.02N sodium thiosulfate solution. The end-point was the disappearance of purple color. Free bromine (wt %) was calculated in the following manner:
Wt % free Br2=Volume (ml) of sodium Thiosulfate×Normality of Sodium thisosulfate/Sample Weight.

[2] = Cloud point determination (solubility in ZnBr2 solution); conditions: for Solubility in ZnBr2 Cloud Point: 0.7 M quat in 2.5M Zinc Bromide water solution
Experimental: By “cloud point” is meant the cloud point of an aqueous solution containing 0.7 M complexing agent and 2.5 M zinc bromide.
A 0.7M quaternary ammonium bromide in 2.5M Zinc Bromide water solution was prepared. • 2. The solution was transferred to a jacketed flask with a stirring bar and temperature monitor. • 3. The solution was warmed to 15° C. above the expected cloud point. If necessary, any moisture or impurities were removed by filtration. • 4. The solution was stirred, with speed adjustment to about 250 rpm, while avoiding the formation of bubbles. • 5. The solution was cooled gradually (cooling rate of about 1° C./5 min). • 6. The sample was inspected carefully for signs of cloudiness, and the temperature at which cloudiness was observed was recorded to the nearest 0.1° C.

[3] = Free bromine in electrolyte with chloroquat or bromoquat (Example 8); format: physicochemical; conditions: 0.84 M zinc bromide, 0.8 M quat, 1.44 M bromine; stirred for 24 hrs at 35° C.
Experimental: Chloride ions are added to the electrolyte in amounts sufficient to reduce the amount of free bromine present and increase the electrolyte conductivity during charging of the cell. Chloride ions in the electrolyte may come from zinc chloride or quaternary ammonium chloride complexing agent.
Experiment 1 of Example 8: An aqueous electrolyte system was prepared having 0.84 M zinc bromide, 0.8 NI chloroquat (N-methyl, N-butyl pyrrolidinium chloride) and 1.44 M bromine. After the sample was stirred for 24 hrs at 35° C., the amount of free bromine present in the electrolyte was 0.26%.
Experiment 2 of Example 8: An aqueous electrolyte system was prepared having 0.84 M zinc bromide, 0.8 M bromoquat (N-methyl, N-butyl pyrrolidinium bromide) and 1.44 NI bromine. After the sample was stirred for 24 hrs at 35° C., the amount of free bromine present in the electrolyte was 0.25%.

[4] = 0.7 M quat (composition A: 0.5 moles zinc bromide, 2.0 moles bromine)
[5] = 0.8 M quat (composition B: 0.5 moles zinc bromide, 0.4 moles zinc chloride, 1.44 moles bromine)

Compound | Free Br2 [1, 4] | Solubility in ZnBr2 Cloud Point [2] | also measured
CCCC[N+](C)(C)CCOC.[Br-] [Compound 1, Dimethylbutylether Quat Bromide] | 0.7 M 0.28% | 0.7 M, 29 C. | –
CC[N+](CC)(CC)CCOC.[Br-] [Compound 2, (2-methoxyethyl)-triethylammonium bromide] | 0.658% and 0.7 M 0.658% | – | Free Br2 [1, 5]: 0.467% and 0.8 M 0.467%
CC[N+](C)(CC)CCOC.[Br-] [Compound 4, diethylmethyl-(2-methoxyethyl)ammonium bromide] | 0.7 M 0.70% | – | –
CCC[N+](CC)(CC)CC.[Br-] [Compound 5, triethylpropylammonium bromide] | 0.089% and 0.7 M 0.089% | 0.7 M, 41.2 C. | –
CC[N+]1(CC)CCCCC1.[Br-] [Compound 9, Diethyl Piperidinium Bromide] | – | 0.7 M, 11.9 C. | Free Br2 [1, 5]: 0.26% and 0.8 M 0.26%
CCC[N+]1(CC)CCCCC1 [Compound 10, EthyPropyl Piperidinium Bromide] | – | 0.7 M, 45.8 C. | Free Br2 [1, 5]: 0.026% and 0.8 M 0.026%
CC[N+](C)(C)CCOCC[N+](C)(C)CC.[Br-].[Br-] [Compound 14, Dimethylethyl Gemini Quat Bromide with Diethylether Linkage] | 0.71% and 0.7 M 0.71% | 0.7 M, 48.2 C. | –
CC[N+](C)(C)CCCC[N+](C)(C)CC.[Br-].[Br-] [Compound 15, Dimethylethyl Gemini Quat Bromide with Butyl Linkage] | 0.59% and 0.7 M 0.59% | 0.7 M, 89.2 C. | –
CCC[N+](C)(C)CC.[Br-] [DMEP, dimethylethylpropyl ammonium bromide, reference compound] | – | – | cloud point ([2]; solution 0.7M in DMEP and 2.5M in ZnBr2): about 23.2 °C
CCCC[N+]1(C)CCCC1.[Br-] [bromoquat, N-methyl, N-butyl pyrrolidinium bromide] | – | – | amount of free bromine present in the electrolyte [3]: 0.25%
CCCC[N+]1(C)CCCC1.[Cl-] [chloroquat, N-methyl, N-butyl pyrrolidinium chloride] | – | – | amount of free bromine present in the electrolyte [3]: 0.26%
